Data reported in ChEMBL document CHEMBL5223187, “A Quantum Mechanics-Based Method to Predict Intramolecular Hydrogen Bond Formation Reflecting P-glycoprotein Recognition” (ACS Med Chem Lett, 2023).
pIC50: −log10 of the molar value.

Experiments:
Beta-secretase 1 = Beta-secretase 1 (Homo sapiens, UniProt P56817); assay: Inhibition of BACE1 (unknown origin) by HTRF assay
[1] = Apparent permeability in pig LLC-PK1 cells by LC-MS/MS analysis; type: ADME, cell-based, Sus scrofa

Beta-secretase 1, sequence (P56817 whole entry): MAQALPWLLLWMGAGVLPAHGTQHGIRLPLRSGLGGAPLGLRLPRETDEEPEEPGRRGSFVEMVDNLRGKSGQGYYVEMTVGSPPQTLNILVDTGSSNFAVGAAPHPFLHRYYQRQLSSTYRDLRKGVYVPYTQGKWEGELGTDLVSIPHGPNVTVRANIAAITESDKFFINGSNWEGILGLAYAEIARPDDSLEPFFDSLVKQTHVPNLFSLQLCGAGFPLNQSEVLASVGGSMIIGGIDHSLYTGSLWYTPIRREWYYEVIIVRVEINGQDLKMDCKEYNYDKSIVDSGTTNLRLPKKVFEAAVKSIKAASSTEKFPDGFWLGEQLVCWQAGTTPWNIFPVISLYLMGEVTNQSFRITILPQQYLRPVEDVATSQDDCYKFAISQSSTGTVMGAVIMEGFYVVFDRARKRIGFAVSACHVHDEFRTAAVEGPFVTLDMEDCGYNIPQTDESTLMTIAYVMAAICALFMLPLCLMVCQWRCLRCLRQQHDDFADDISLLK

| Compound | pIC50 (Beta-secretase 1) | Papp [1] |
| --- | --- | --- |
| C[C@@]1(c2cc(NC(=O)c3ncc(C#N)cc3F)ccc2F)C=C(CF)OC(N)=N1 | 6.81 |  |
| COc1cnc(C(=O)Nc2ccc(F)c([C@]3(C)C=C(CF)OC(N)=N3)c2)nc1 | 6.62 |  |
| COc1cnc(C(=O)Nc2ccc(F)c([C@]3(C)C=C(CF)OC(N)=N3)c2)c(C)n1 | 6.31 |  |
| C[C@@]1(c2cc(NC(=O)c3ccn(C(F)F)n3)ccc2F)C=C(CF)OC(N)=N1 | 7.08 |  |
| C[C@@]1(c2cc(NC(=O)c3ccc(C#N)cn3)ccc2F)C=CSC(N)=N1 [ATABECESTAT] |  | 23 ×10⁻⁶ cm/s |
| C[C@@]1(c2cc(-c3cncnc3)c(F)cc2F)CCSC(N)=N1 [LY-2811376] |  | 33 ×10⁻⁶ cm/s |
